# Reference: US5650415A, “Quinoline compounds” (Sugen, Inc., priority 1995, dated 1997)
# Biological target: T1, PDGFR (Homo sapiens, UniProt P09619)
# T1 construct: endogenous in cells; host or cells: U1242 MG human glioblastoma cells
# Experiment: PDGF-R Cellular Assay (ELISA)
# Type: cell-based
# Conditions: U1242 human glioblastoma cells
# From the text: The following examples illustrates the ability of the exemplary compounds to inhibit receptor tyrosine kinases, such as HER2 and/or EGFR. The following target cells were used for cellular kinase assays: NIH3T3 clone C7 (Honegger et al., supra) engineered to over-express human EGF receptor; NIH3T3 cells engineered to over-express a chimeric receptor containing the EGFR extracellular domain and the HER2 intracellular kinase domain; the human mammary carcinoma line BT474 (ATCC HTB2) expressing HER2; and the human glioblastoma line U1242 that expresses PDGFR-beta. Growth assays were carried out using human mammary epithelial SKBR3 (ATCC HTB30) cells (SKBR3 cells over-express HER2), SKOV3 (AT(D(D HTB77) human ovarian cancer cell line (SKOV3 cells also over-express HER2), A431 cells (A431 cells over-express EGFR) MCF7 human breast carcinoma cells, MCF7 cells overexpressing the HER2 kinase (MCF7-HER2), NIH3T3 cells, and NIH3T3 cells overexpressing the HER2 kinase (3T3-HER2.
# The PDGF cellular kinase assay was carried out as follows: cells are lysed in 0.2M Hepes, 0.15M NaCl, 10% VN glycerol, 0.04% Triton X-100, 5 mM EDTA, 5 mM Na+ vanadate and 2 mM Na+ pyrophosphate; cell lysates are then added to an ELISA plate coated with an anti-PDGF receptor antibody (Genzyme); ELISA plates are coated at 0.5 μg of antibody/well in 150 μl of PBS for 18 hours at 4° C. prior to the addition of the lysate; the lysate is incubated in the coated plates for 1 hour and then washed four times in TBST (35 mM Tris-HCl pH 7.0, 0.15M NaCl, 0.1% Triton X100); anti-phosphotyrosine antibody (100 μl in PBS) is added and the mixture is incubated for 30 minutes at room temperature; the wells were then washed four times in TBST, a secondary antibody conjugated to POD (TAGO) is added to each well, and the treated well are incubated for 30 minutes at room temperature; the wells are then washed four times in TBST, ABTS/H2 O2 solution is added to each well and the wells are incubated for two minutes; absorbance is then measured at 410 nm.
# U1242 MG cells were plated in 96-well plates at a concentration of 5×10^4 cells/well in cultured media containing 0.5% FBS. The cells were incubated for 24 hours. The cells were then treated with a particular compound for 2 hours followed by the addition of 100 ng/ml PDGF-BB and incubation for 10 minutes.
# Cells were lysed in 0.2M Hepes, 0.15M NaCl, 10% VN glycerol, 0.04% Triton X-100, 5 mM EDTA, 5 mM Na^+ vanadate and 2 mM Na^+ pyrophosphate. Cell lysates were then added to an ELISA plate coated with an anti-PDGF receptor antibody (Genzyme). ELISA plates were coated at 0.5 μg of antibody/well in 150 μl of PBS for 18 hours at 4° C. prior to the addition of the lysate.
# The lysate was incubated in the coated plates for 1 hour and then washed four times in TBST (35 mM Tris-HCl pH 7.0, 0.15M NaCl, 0.1% Triton X-100). Anti-phosphotyrosine antibody (100 μl in PBS) was added and the mixture was incubated for 30 minutes at room temperature. The wells were then washed four times in TBST, a secondary antibody conjugated to POD (TAGO) was added to each well, and the treated well were incubated for 30 minutes at room temperature. The wells were then washed four times in TBST, ABTS/H2 O2 solution was added to each well and the wells were incubated for two minutes. Absorbance was then measured at 410 nm.
# T1 sequence (P09619 33-1106): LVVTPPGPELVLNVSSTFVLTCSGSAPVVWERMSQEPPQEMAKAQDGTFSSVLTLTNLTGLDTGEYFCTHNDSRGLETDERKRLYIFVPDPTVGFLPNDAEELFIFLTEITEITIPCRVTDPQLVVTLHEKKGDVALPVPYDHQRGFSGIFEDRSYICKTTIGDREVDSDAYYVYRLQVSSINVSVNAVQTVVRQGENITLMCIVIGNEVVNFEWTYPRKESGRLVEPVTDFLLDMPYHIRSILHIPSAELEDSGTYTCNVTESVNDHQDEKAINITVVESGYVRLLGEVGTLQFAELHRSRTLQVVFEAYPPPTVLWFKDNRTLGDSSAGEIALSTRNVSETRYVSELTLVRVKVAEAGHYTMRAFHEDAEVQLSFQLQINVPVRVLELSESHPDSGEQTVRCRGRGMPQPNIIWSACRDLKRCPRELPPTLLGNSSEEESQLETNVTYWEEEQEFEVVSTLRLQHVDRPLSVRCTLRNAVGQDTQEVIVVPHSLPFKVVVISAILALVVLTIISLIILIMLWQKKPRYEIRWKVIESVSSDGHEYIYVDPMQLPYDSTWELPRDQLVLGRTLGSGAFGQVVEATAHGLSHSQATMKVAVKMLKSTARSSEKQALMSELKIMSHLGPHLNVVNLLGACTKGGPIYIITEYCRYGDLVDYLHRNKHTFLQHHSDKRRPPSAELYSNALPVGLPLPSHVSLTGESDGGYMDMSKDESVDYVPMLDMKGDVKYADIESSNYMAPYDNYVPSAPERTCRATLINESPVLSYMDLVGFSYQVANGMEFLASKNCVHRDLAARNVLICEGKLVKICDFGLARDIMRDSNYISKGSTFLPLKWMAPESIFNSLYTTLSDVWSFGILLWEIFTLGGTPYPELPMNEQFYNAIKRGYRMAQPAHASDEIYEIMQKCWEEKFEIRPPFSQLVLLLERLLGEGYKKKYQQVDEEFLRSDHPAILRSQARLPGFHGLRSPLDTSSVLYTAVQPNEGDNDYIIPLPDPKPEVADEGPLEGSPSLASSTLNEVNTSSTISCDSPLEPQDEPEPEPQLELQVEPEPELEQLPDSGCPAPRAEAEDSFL
row,SMILES,IC50 [µM]
1,"CCOC(=O)c1cnc2c(F)ccc(F)c2c1Sc1ccc(Cl)cc1 [Compound A732, 4-(4-Chlorophenylmercapto)-5,8-difluoro-3-ethoxycarbonylquinoline]",> 50
2,"CCOC(=O)c1cnc2c(F)ccc(F)c2c1Sc1cccc(C(F)(F)F)c1 [Compound A713, 3-Ethoxycarbonyl-5,8-difluoro-4-(3-trifluoromethylphenylmercapto)quinoline]",> 50
3,"CCOC(=O)c1cnc2c(F)cc(F)cc2c1Sc1ccc(Cl)cc1 [Compound A730, 4-(4-Chlorophenylmercapto)-6,8-difluoro-3-ethoxycarbonylquinoline]",> 50
4,"CCOC(=O)c1cnc2ccc(C(F)(F)F)cc2c1Nc1ccc(C(F)(F)F)cc1 [Compound A722, 3-Ethoxycarbonyl-4-(4-trifluoromethylphenylamino)-6-trifluoromethylquinoline]",> 100
5,"CCOC(=O)c1cnc2cc(Cl)c(F)cc2c1Sc1ccc(Cl)cc1 [Compound A731, 7-Chloro-4-(4-chlorophenylmercapto)-6-fluoro-3-ethoxycarbonylquinoline]",> 50
6,"CCOC(=O)c1cnc2ccc(C(F)(F)F)cc2c1Nc1cccc(C(F)(F)F)c1 [Compound A721, 3-Ethoxycarbonyl-4-(3-trifluoromethylphenylamino)-6-trifluoromethylquinoline]",> 100
7,"CCOC(=O)c1cnc2ccc(C(F)(F)F)cc2c1Nc1cccc(Br)c1 [Compound A716, 4-(3-Bromophenylamino)-3-ethoxycarbonyl-6-trifluoromethylquinoline]",> 100
